Some test systems named below: A549 NSCLC; HCC-2998 colon; HOP-92 NSCLC; K-562 leukemia; NCI-H522 lung; SK-MEL-28 melanoma; SNB-75 CNS; KM20L2 colon; M19-MEL melanoma.
Test in all cases: inhibition of tumour cell growth, NCI panel, 48 h

Several values for one entry are separate records, joined by “and”; a condition that tells them apart may be missing. Identical values can stand only once.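 Values below derive from 48-hour exposures of cells grown in 96-well plates, with endpoints linearly interpolated between the two concentrations bracketing the appropriate inhibition level. GI50 marks 50% less growth. At the TGI there is no net growth.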

Consider `C=CCn1c(=O)c2cnc(Nc3ccc(N4CCN(C)CC4)cc3)nc2n1-c1ccc2c(n1)[C@@](O)(CC)CC2`, for which the GI50 in the assay on A549 NSCLC is 2 µM; in the assay with HCC-2998 colon, 0.593 µM; in the assay on HOP-92 NSCLC, 0.494 µM; in the assay on K-562 leukemia, 0.325 µM; in the assay on NCI-H522 lung, 0.221 µM; in the assay with SK-MEL-28 melanoma, 3.68 µM. In addition, the GI50 in the assay on SNB-75 CNS is 1.07 µM. Moreover, the TGI in the assay with A549 NSCLC is 35.8 µM; in the assay on HCC-2998 colon, 3.82 µM; in the assay with HOP-92 NSCLC it was 30.5 µM; in the assay with K-562 leukemia, > 34.8 µM; in the assay on NCI-H522 lung, 0.888 µM; with SK-MEL-28 melanoma, 21.6 µM. Further, in the assay on SNB-75 CNS, the TGI came out at 13.7 µM.

As for `COc1ccc(C(C#N)NC23CC4CC(CC(C4)C2)C3)cc1OC` (configuration not stated), the TGI in the assay on A549 NSCLC, in the assay with HCC-2998 colon, in the assay on HOP-92 NSCLC, with K-562 leukemia, in the assay on NCI-H522 lung and in the assay with SK-MEL-28 melanoma was > 100 µM throughout. Moreover, the TGI with SNB-75 CNS was > 100 µM.

Consider `CC(C)(C)[Si](C)(C)OCC1CCC(n2cnc3c(=O)[nH]cnc32)O1` (configuration not stated), for which the TGI in the assay on A549 NSCLC, in the assay on HCC-2998 colon, in the assay with HOP-92 NSCLC, in the assay with K-562 leukemia, in the assay with NCI-H522 lung and in the assay with SK-MEL-28 melanoma was > 100 µM each time. In addition, the TGI in the assay with SNB-75 CNS turned out to be 99.8 µM.

On to `O=c1oc2cc(N=Cc3ccccc3Cl)ccc2c2ccccc12`, for which the TGI in the assay on A549 NSCLC, in the assay on HCC-2998 colon, with HOP-92 NSCLC, in the assay with K-562 leukemia, in the assay on NCI-H522 lung and with SK-MEL-28 melanoma was > 100 µM each time. In addition, in the assay on SNB-75 CNS, the TGI was > 100 µM.

With `COC(=O)CCC(C)[C@H]1CCC2C3C(C[C@H](OC(C)=O)[C@@]21C)[C@@]1(C)CCC2(C[C@H]1C[C@H]3OC(C)=O)OOC1(CCC(C)CC1)OO2` (some centres not stated), the GI50 is 3.89 µM and 13.4 µM with A549 NSCLC; 3.78 µM and 26.8 µM in the assay with K-562 leukemia; 6.16 µM and 14.6 µM in the assay on NCI-H522 lung; 13.7 µM and 40.7 µM in the assay with SNB-75 CNS. Moreover, the TGI in the assay on A549 NSCLC is 25.4 µM and > 100 µM; in the assay with HCC-2998 colon, > 100 µM; in the assay on HOP-92 NSCLC, 7.63 µM and 69.9 µM; in the assay on K-562 leukemia it was > 100 µM; with NCI-H522 lung it was > 100 µM; with SK-MEL-28 melanoma, > 100 µM. Moreover, the TGI in the assay on SNB-75 CNS was > 100 µM.

With `COc1cc(NS(C)(=O)=O)ccc1Nc1c2ccccc2nc2c(C)cccc12`, the GI50 in the assay on A549 NSCLC is 0.0189 µM and 0.0234 µM; with HCC-2998 colon, 0.645 µM and 0.695 µM; in the assay with HOP-92 NSCLC it was 0.0495 µM and 0.104 µM; in the assay on K-562 leukemia it was 0.272 µM and 0.276 µM; in the assay with NCI-H522 lung, 0.662 µM and 0.219 µM; with SK-MEL-28 melanoma it was 1.1 µM and 1.33 µM. Moreover, the GI50 in the assay with SNB-75 CNS is 0.143 µM and 0.316 µM. Further, the TGI in the assay on A549 NSCLC was 1.25 µM and 1.04 µM; in the assay on HCC-2998 colon it was 6.32 µM and 5.51 µM; with HOP-92 NSCLC, 1.1 µM and 2.27 µM; in the assay with K-562 leukemia, > 37.8 µM and 11.8 µM; with NCI-H522 lung, 12.2 µM and 2.98 µM; in the assay with SK-MEL-28 melanoma, 7.68 µM and 13.7 µM. In addition, the TGI with SNB-75 CNS is 4.31 µM and 10.7 µM.

Consider `COc1ccc(C[n+]2c3ccccc3n3c4ccc(N)cc4ccc32)c(OC)c1OC`, for which the GI50 is 19.3 µM in the assay with A549 NSCLC; 4 µM in the assay with HCC-2998 colon; 0.571 µM in the assay with HOP-92 NSCLC; 4.87 µM in the assay on K-562 leukemia; 2.08 µM with NCI-H522 lung; 1.89 µM in the assay on SK-MEL-28 melanoma. Also, the GI50 in the assay with SNB-75 CNS is 1.45 µM. The TGI is > 100 µM in the assay on A549 NSCLC; 24.7 µM in the assay with HCC-2998 colon; 3.77 µM in the assay on HOP-92 NSCLC; > 100 µM in the assay with K-562 leukemia; 15.7 µM with NCI-H522 lung; 5.56 µM in the assay with SK-MEL-28 melanoma. This molecule also displayed a TGI with SNB-75 CNS of 10.8 µM.

On to `Cc1csc(/C=N/NC(=O)c2nnn(-c3ccnc4c(C(F)(F)F)cccc34)c2C)c1`, for which the GI50 in the assay on A549 NSCLC is 36.6 µM; in the assay with HCC-2998 colon it was > 100 µM; in the assay with HOP-92 NSCLC, 55.8 µM; with K-562 leukemia, 35 µM; in the assay with NCI-H522 lung, 28.7 µM; in the assay on SK-MEL-28 melanoma, > 100 µM. In addition, the GI50 with SNB-75 CNS is 27.2 µM. The TGI with A549 NSCLC, with HCC-2998 colon, in the assay on HOP-92 NSCLC, in the assay with K-562 leukemia, in the assay on NCI-H522 lung and in the assay on SK-MEL-28 melanoma was > 100 µM in each case. This molecule gave a TGI in the assay on SNB-75 CNS of 92.1 µM.

`COc1cc2ccccc2c2cc([N+](=O)[O-])oc12`: the TGI in the assay with A549 NSCLC was 22.7 µM; with HCC-2998 colon, 1.09 µM; in the assay on HOP-92 NSCLC, 4.54 µM; in the assay with K-562 leukemia, > 38.9 µM; in the assay with NCI-H522 lung, 1.35 µM; in the assay with SK-MEL-28 melanoma, 0.695 µM. This molecule also returned a TGI in the assay with SNB-75 CNS of 6.9 µM. Besides, the GI50 in the assay on HCC-2998 colon was 0.294 µM.

Take `O=C(/C=C/c1ccccc1)c1c[nH]c2ccccc2c1=O`: the GI50 was 2.35 µM in the assay on A549 NSCLC; 2.85 µM with HCC-2998 colon; 3.9 µM with HOP-92 NSCLC; 2.74 µM with K-562 leukemia; 1.88 µM in the assay on NCI-H522 lung; 6.53 µM in the assay on SK-MEL-28 melanoma. Besides, in the assay with SNB-75 CNS, the GI50 was 3.1 µM. Besides, the TGI in the assay on A549 NSCLC stood at 10.3 µM; in the assay with HCC-2998 colon it was 9.48 µM; in the assay on HOP-92 NSCLC, 13 µM; in the assay with K-562 leukemia, 54.8 µM; with NCI-H522 lung, 4.85 µM; with SK-MEL-28 melanoma, 19.4 µM. In the assay with SNB-75 CNS, this molecule showed a TGI of 12 µM.

For the molecule `Cn1cc(C2=C(c3c4n(c5ccccc35)CCCC4)C(=O)NC2=O)c2ccccc21`, the GI50 in the assay on A549 NSCLC was 12.5 µM; in the assay with HCC-2998 colon, > 23.8 µM; with HOP-92 NSCLC, 8.89 µM; in the assay with K-562 leukemia, 5.32 µM; in the assay on NCI-H522 lung, 4.29 µM; in the assay on SK-MEL-28 melanoma it was > 21.8 µM. Besides, in the assay with SNB-75 CNS, the GI50 is 3.82 µM. Besides, the TGI in the assay with A549 NSCLC was > 25 µM; in the assay with HCC-2998 colon, > 25 µM; in the assay with HOP-92 NSCLC it was > 25 µM; in the assay on K-562 leukemia, > 25 µM; with NCI-H522 lung it was > 16.3 µM; with SK-MEL-28 melanoma it was > 25 µM. The molecule also had a TGI in the assay with SNB-75 CNS of 19.3 µM.

As for `CC1(C)C(c2ccccc2)=NN(O)c2ccccc21`, the TGI in the assay on A549 NSCLC, with HCC-2998 colon, with K-562 leukemia, in the assay with KM20L2 colon, in the assay on M19-MEL melanoma and with NCI-H522 lung was > 100 µM in each case. For the same molecule, the TGI in the assay with SK-MEL-28 melanoma and in the assay with SNB-75 CNS was > 100 µM in each case.

For the origin of these results see PubChem BioAssay (NCI).
